This assay relates to T1, trypsin.
T1 construct: gene PRSS1
The assay is described as follows: antitryptic activity: albumin digestion, perchloric acid precipitation, A280. The assay is classed as biochemical. The following applies: human albumin (4% v/v) as substrate, Tris-HCl pH 7.4, 37 °C, 5 min preincubation, 20 min reaction. From the text:
antitryptic activity: albumin digestion, perchloric acid precipitation, A280 on trypsin

For the compound `CC(C)Cc1ccc(C(C)C(=O)O)cc1` (stereo not shown) [ibuprofen], the “ATA / IC50 ± SD” value amounted to 259.82 ± 9.14 mg/L.

The record behind these values is publication PMC10300873, “Characterization of Polyphenols from Chenopodium botrys after Fractionation with Different Solvents and Study of Their In Vitro Biological Activity” (Molecules, 2023).
